Test results from patent US11992490B2, “Use of JAK1 inhibitors for the treatment of cutaneous lupus erythematosus and Lichen planus (LP)” (Incyte Corporation, priority 2019, dated 2024).

Legend:
MRL-lpr mice = test: Topical treatment of CLE-like lesions in lupus-prone MRL-lpr mice; format: in vivo, mouse
From the text: Topical treatment with JAK1-selective INCB054707 started with the MRL-lpr Mice at 11 weeks of age.

[1] = system: JAK1-phosphorylation in HaCaT keratinocytes; test: JAK1-phosphorylation (anti-pJAK1 immunofluorescence) in eNA-stimulated HaCaT; format: cell-based, human; conditions: inhibitor 1 μM
[2] = second independent experiment, dose-response
[3] = topical, 11 to 22 weeks, compared to placebo-treated mice

Compound | cumulative skin lesion disease burden (MRL-lpr mice; [2]) | daily cutaneous skin lesion score (MRL-lpr mice; [2]) | incidence of mice with skin lesions (MRL-lpr mice; [2]) | cumulative skin lesion disease burden (area under the curve) (MRL-lpr mice; topical, 11 to 22 weeks) | cutaneous skin lesion score (MRL-lpr mice; [3]) | incidence of mice with skin lesions (MRL-lpr mice; [3]) | inflammatory markers, RNAseq of skin biopsy (MRL-lpr mice; topical, dose-dependent) | lesional skin regarding erythema, induration, scaling and size (MRL-lpr mice; topical, from 11 weeks to 22 weeks of age) | activation of JAK1 (JAK1-phosphorylation) [1]
Cc1n[nH]c(C)c1-c1cnn(C2(CC#N)CN(c3cc(F)c(C(=O)N[C@@H](C)C(F)(F)F)cc3F)C2)c1 [INCB054707] | significant dose-dependent effects | significant dose-dependent effects | significant dose-dependent effects | significantly reduced | significantly reduced | significantly reduced | downregulation of multiple inflammatory markers | continuously improved | –
N#CC[C@H](C1CCCC1)n1cc(-c2ncnc3[nH]ccc23)cn1 [Ruxolitinib, (3R)-3-cyclopentyl-3-[4-(7H-pyrrolo[2,3-d]pyrimidin-4-yl)-1H-pyrazol-1-yl]propanenitrile, reference compound] | – | – | – | – | – | – | – | – | significantly decreased
